In US10450356B2, “PRAME derived peptides and immunogenic compositions comprising these” (Academisch Ziekenhuis Leiden H.O.D.N. LUMC, priority 2007, dated 2019):
Where no end group is shown, it is not given here.

Molecular target: T1, 20S proteasomes purified from a B-LCL cell line (immunoproteasomes) (Homo sapiens, UniProt P28062+P28065+P40306)
T1 construct: 20S proteasomes were purified from a B-LCL cell line; endogenous in cells; purified after Groettrup et al. 1995
Test: In vitro proteasome mediated cleavage analysis
Type: biochemical
Set-up: key to Intact in fragment / Intact Fragment: intact epitope found in digestion fragments: (+), present; (-), not present; key to Processing C-term: generation by proteasome-mediated digestion of fragments containing the correct C-terminus: (++) fragments present for >5%; (+) present for <5%; (-) no fragments containing the C-term. were found
Details: for Processing C-term: generation by proteasome-mediated digestion of fragments containing the correct C-terminus: 1 h digestion; for Intact Fragment: intact epitope found in digestion fragments: after 1 h digestion; for C-term. generation: generation of C-terminus of the epitope after 1 h digestion; for Intact in fragment: intact epitope found in digestion fragments after 1 h digestion
Summary of the method: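 Immunoproteasome-rich 20S proteasomes from a B-LCL line (high LMP2/7 content by 2-D immunoblot). 27-mer peptides (20 μg) were digested with 1 μg proteasome at 37° C for 1 h, 4 h and 24 h, then stopped with TFA. Fragments were identified by nanoelectrospray Q-TOF MS, with peak intensities giving relative peptide amounts.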

Row | Compound | Processing C-term: generation by proteasome-mediated digestion of fragments containing the correct C-terminus | Intact Fragment: intact epitope found in digestion fragments | C-term. generation | Intact in fragment
1 | CC[C@H](C)[C@H](NC(=O)[C@H](CC(C)C)NC(=O)[C@H](Cc1c[nH]cn1)NC(=O)[C@H](CCC(N)=O)NC(=O)[C@H](CC(C)C)NC(=O)[C@H](CC(C)C)NC(=O)[C@H](CO)NC(=O)[C@H](CCC(N)=O)NC(=O)[C@H](CC(C)C)NC(=O)[C@H](C)N)C(=O)O | - | - |  | 
2 | CC(C)C[C@H](NC(=O)[C@@H](N)CC(C)C)C(=O)N[C@@H](C)C(=O)N[C@@H](CCC(N)=O)C(=O)N[C@@H](CCC(=O)O)C(=O)N[C@H](C(=O)N[C@@H](CCCNC(=N)N)C(=O)N1CCC[C@H]1C(=O)N[C@@H](CCCNC(=N)N)C(=O)N[C@@H](CCCNC(=N)N)C(=O)O)C(C)C | - | - |  | 
3 | CC(C)C[C@H](NC(=O)[C@@H](NC(=O)[C@H](CC(=O)O)NC(=O)[C@H](CC(C)C)NC(=O)CNC(=O)[C@H](CC(=O)O)NC(=O)[C@H](CC(C)C)NC(=O)[C@@H](NC(=O)[C@H](C)N)C(C)C)C(C)C)C(=O)O | - | - |  | 
4 | CC[C@H](C)[C@H](N)C(=O)N[C@H](C(=O)N[C@@H](CC(=O)O)C(=O)N[C@@H](CC(=O)O)C(=O)N[C@@H](CCC(N)=O)C(=O)N[C@@H](CC(C)C)C(=O)N[C@@H](CC(C)C)C(=O)N[C@@H](C)C(=O)N[C@@H](CC(C)C)C(=O)N[C@@H](CC(C)C)C(=O)O)[C@@H](C)O |  |  | + (low abundant (+) present for <5%) | +
5 | CC[C@H](C)[C@H](NC(=O)[C@H](CO)NC(=O)[C@H](CC(N)=O)NC(=O)CNC(=O)[C@H](Cc1ccc(O)cc1)NC(=O)[C@H](Cc1ccccc1)NC(=O)[C@H](CO)NC(=O)[C@H](CC(C)C)NC(=O)[C@@H](N)[C@@H](C)O)C(=O)O | - | - | ++ (abundant (++) present for >5%) | +
6 | CC[C@H](C)[C@H](NC(=O)[C@@H]1CCCN1C(=O)[C@H](CCC(=O)O)NC(=O)[C@@H]1CCCN1C(=O)[C@H](CC(=O)O)NC(=O)[C@H](Cc1ccc(O)cc1)NC(=O)[C@H](Cc1ccccc1)NC(=O)[C@@H](N)[C@@H](C)O)C(=O)N[C@@H](CC(C)C)C(=O)O | - | - |  | 
7 | CSCC[C@H](NC(=O)[C@H](Cc1ccccc1)NC(=O)[C@H](CC(C)C)NC(=O)[C@@H]1CCCN1C(=O)[C@@H]1CCCN1C(=O)[C@H](Cc1ccccc1)NC(=O)[C@@H](N)CC(C)C)C(=O)N[C@@H](C)C(=O)N[C@@H](C)C(=O)N[C@@H](Cc1ccccc1)C(=O)O | ++ ((++) fragments present for >5%) |  | ++ (abundant (++) present for >5%) | 
8 | CC(C)C[C@H](NC(=O)[C@H](C)NC(=O)[C@H](CCC(N)=O)NC(=O)[C@H](CC(C)C)NC(=O)[C@H](CS)NC(=O)[C@H](CCC(N)=O)NC(=O)[C@H](CC(C)C)NC(=O)[C@@H](N)CO)C(=O)N[C@@H](Cc1ccc(O)cc1)C(=O)N[C@H](C(=O)O)C(C)C | + ((+) present for <5%) | - |  | 
9 | CC[C@H](C)[C@H](NC(=O)[C@H](C)N)C(=O)N[C@@H](C)C(=O)N[C@@H](C)C(=O)N[C@@H](CC(C)C)C(=O)N[C@@H](CCC(=O)O)C(=O)N[C@@H](CC(C)C)C(=O)N[C@@H](CC(C)C)C(=O)N1CCC[C@H]1C(=O)N[C@@H](CCCNC(=N)N)C(=O)O | - | - |  | 
10 | CC[C@H](C)[C@H](N)C(=O)N[C@@H](Cc1ccccc1)C(=O)N[C@@H](C)C(=O)N[C@@H](CCSC)C(=O)N1CCC[C@H]1C(=O)N[C@@H](CCSC)C(=O)N[C@@H](CCC(N)=O)C(=O)N[C@@H](CC(=O)O)C(=O)N[C@H](C(=O)O)[C@@H](C)CC | - | - |  | 
11 | CC[C@H](C)[C@H](NC(=O)[C@H](CC(=O)O)NC(=O)[C@H](CCC(=O)O)NC(=O)[C@H](Cc1ccc(O)cc1)NC(=O)[C@@H](N)CO)C(=O)N[C@@H](Cc1c[nH]cn1)C(=O)NCC(=O)N[C@H](C(=O)N[C@@H](CC(C)C)C(=O)O)[C@@H](C)O | - | - |  | 
12 | CC(C)C[C@H](NC(=O)CN)C(=O)N[C@@H](CC(=O)O)C(=O)N[C@H](C(=O)N[C@@H](CC(C)C)C(=O)N[C@@H](CC(C)C)C(=O)N[C@@H](C)C(=O)N[C@@H](CCC(N)=O)C(=O)N[C@@H](CCC(=O)O)C(=O)N[C@H](C(=O)O)C(C)C)C(C)C | - | - |  | 
13 | CSCC[C@H](NC(=O)[C@@H](NC(=O)[C@H](CC(=O)O)NC(=O)CNC(=O)[C@H](CCC(=O)O)NC(=O)[C@H](CO)NC(=O)[C@@H](N)CC(C)C)C(C)C)C(=O)N[C@@H](Cc1c[nH]cn1)C(=O)N[C@@H](CC(C)C)C(=O)O |  |  | + (low abundant (+) present for <5%) | +
14 | CC[C@H](C)[C@H](NC(=O)[C@H](CO)NC(=O)[C@H](CC(C)C)NC(=O)[C@@H](N)[C@@H](C)O)C(=O)N[C@H](C(=O)N[C@@H](CC(N)=O)C(=O)N[C@@H](CS)C(=O)N[C@@H](CCCNC(=N)N)C(=O)N[C@@H](CC(C)C)C(=O)O)[C@@H](C)O |  |  | ++ (abundant (++) present for >5%) | +
15 | CC(C)C[C@H](NC(=O)[C@H](CCC(N)=O)NC(=O)[C@H](CC(=O)O)NC(=O)[C@H](CC(C)C)NC(=O)[C@H](CCCNC(=N)N)NC(=O)CNC(=O)[C@H](CCCNC(=N)N)NC(=O)[C@H](CC(C)C)NC(=O)[C@H](Cc1ccccc1)NC(=O)[C@@H](N)Cc1ccccc1)C(=O)O | - | - |  | 
16 | CC(C)C[C@H](NC(=O)[C@H](CC(C)C)NC(=O)[C@@H](NC(=O)[C@H](CC(=O)O)NC(=O)[C@H](CC(C)C)NC(=O)CNC(=O)[C@H](CC(=O)O)NC(=O)[C@H](CC(C)C)NC(=O)[C@@H](NC(=O)[C@H](C)N)C(C)C)C(C)C)C(=O)O | ++ ((++) fragments present for >5%) | + | ++ (abundant (++) present for >5%) | +
17 | CC(C)C[C@H](NC(=O)[C@H](Cc1c[nH]cn1)NC(=O)[C@H](CCC(N)=O)NC(=O)[C@H](CC(C)C)NC(=O)[C@H](CC(C)C)NC(=O)[C@H](CO)NC(=O)[C@H](CCC(N)=O)NC(=O)[C@H](CC(C)C)NC(=O)[C@H](C)N)C(=O)O | - | - |  | 
18 | CC(C)C[C@H](NC(=O)CNC(=O)[C@H](CC(=O)O)NC(=O)[C@H](CC(C)C)NC(=O)[C@@H](N)C(C)C)C(=O)N[C@@H](CC(=O)O)C(=O)N[C@H](C(=O)N[C@@H](CC(C)C)C(=O)N[C@@H](CC(C)C)C(=O)N[C@@H](C)C(=O)O)C(C)C | - | - |  | 
19 | CC(C)C[C@H](NC(=O)[C@H](CO)NC(=O)[C@H](CC(C)C)NC(=O)[C@H](Cc1ccccc1)NC(=O)[C@H](CCC(N)=O)NC(=O)[C@H](CO)NC(=O)[C@@H](NC(=O)[C@H](Cc1ccccc1)NC(=O)[C@@H](N)CCC(N)=O)[C@@H](C)O)C(=O)O | ++ ((++) fragments present for >5%) |  | ++ (abundant (++) present for >5%) | 
20 | CC(C)C[C@H](NC(=O)[C@H](Cc1c[nH]cn1)NC(=O)[C@H](CC(C)C)NC(=O)[C@@H](N)Cc1c[nH]cn1)C(=O)N[C@@H](CCC(=O)O)C(=O)N[C@H](C(=O)N[C@@H](Cc1ccccc1)C(=O)N[C@@H](CCCCN)C(=O)N[C@@H](C)C(=O)O)[C@@H](C)O | - | - |  | 
21 | CC[C@H](C)[C@H](NC(=O)[C@@H](N)Cc1ccc(O)cc1)C(=O)N[C@@H](C)C(=O)N[C@@H](CCC(N)=O)C(=O)N[C@@H](Cc1ccccc1)C(=O)N[C@H](C(=O)N[C@@H](CO)C(=O)N[C@@H](CCC(N)=O)C(=O)N[C@@H](Cc1ccccc1)C(=O)N[C@@H](CC(C)C)C(=O)O)[C@@H](C)O | ++ ((++) fragments present for >5%) | + | ++ (abundant (++) present for >5%) | +
22 | GLSNITHVLY | - | - |  | 
23 | CC(C)C[C@H](NC(=O)[C@@H](NC(=O)[C@@H]1CCCN1)[C@@H](C)O)C(=O)N[C@@H](C)C(=O)N[C@@H](CCCCN)C(=O)N[C@@H](Cc1ccccc1)C(=O)N[C@@H](CO)C(=O)N1CCC[C@H]1C(=O)N[C@@H](Cc1ccc(O)cc1)C(=O)O | - | - |  | 
24 | CC(C)C[C@H](NC(=O)[C@H](Cc1ccc(O)cc1)NC(=O)[C@@H]1CCCN1C(=O)[C@H](CO)NC(=O)[C@H](Cc1ccccc1)NC(=O)[C@H](CCCCN)NC(=O)[C@H](C)NC(=O)[C@H](CC(C)C)NC(=O)[C@@H](N)[C@@H](C)O)C(=O)O | + ((+) present for <5%) | + | + (low abundant (+) present for <5%) | +
